Earlier results as cited in patent publication US20230172880A1, “FAST-ACTING TOPICAL ANESTHETIC FORMULATIONS” (priority 2020, published 2023).

Details: administered directly into tissue

## CCN(CC)CC(=O)Nc1c(C)cccc1C [lidocaine]
  onset: less than 2 min
